Values after ≈ are worked out from the molar mass of the structure shown. “Also recorded” adds a separate entry of the source.
Assays:
[1] = target: T1, human adenosine A2a receptor (Homo sapiens, UniProt P29274); experiment: Calcium flux assay of the human adenosine A2a receptor (FLIPR, CHO cells stably expressing A2a, agonist NECA); assay type: cell-based; conditions: conclusion on Table 3
T1 construct: host or cells: CHO cells
Description: Calcium Flux Assay of the Human Adenosine A2a Receptor
The cell line stably expressing A2a was constructed by Shanghai WuXi AppTec, and the host cells were CHO cells.
Fluo-4 Direct kit (Invitrogen, Cat. No. F10471). The fluorescence detection reagent in the kit (which can specifically bind to calcium ions and cause an increase in the fluorescence signal) was incubated with the cells for an appropriate period of time, and the compounds were added to stimulate the cells to cause changes in the intracellular calcium flux, thereby causing changes in the fluorescence signal, which can reflect the strength of the agonistic or inhibitory activity of the compounds. […]
FLIPR instrument software was run. According to the set program, 10 μl of the compound dilution buffer was added to the cell plate, and the fluorescence signal was read. Then 10 μl of a predetermined concentration of the agonist as a reference compound was added to the cell plate, and the fluorescence signal was read. After the reading, data was exported through the “Max-Min” and “Read 90 to Maximum allowed” methods in the software. EC80 of the A2A cell line was calculated, and the agonist with a concentration of 6×EC80 was prepared. […]
FLIPR instrument software was run. […] Again, 10 μl of the agonist as a reference compound with a concentration of 6×EC80 was added to the cell plate, and the fluorescence signal was read. […]

[2] = Pharmacokinetics in female Balb/c mice after intravenous injection and oral administration; assay type: in vivo
Description: Object of the assay: to test the pharmacokinetics of the compound in female Balb/c mice in vivo
Balb/c mice (female, 15 to 30 g, 7 to 9 weeks old, from Shanghai Lingchang Biotechnology Company)
The pharmacokinetic profile of the compound after intravenous injection and oral administration in the rodents was tested by the standard protocol. In the assay, the candidate compound was prepared into a clear solution to be administered to the mice through a single intravenous injection and prepared into a homogeneous suspension to be administered to the mice through a single oral administration. The vehicle for the intravenous injection was 5% DMSO/95% 10% Cremophor EL, and the vehicle for the oral administration was 1% Tween 80, 9% PEG400, and 90% water. The whole blood sample was collected within 24 hours, and centrifuged at 3000 g at 4° C. for 15 minutes. The supernatant was separated to give the plasma sample, and 20 times volume of acetonitrile solution containing an internal standard was added to precipitate the proteins. […] The supernatant was taken out, and injected as a sample to quantitatively analyze the plasma drug concentration by LC-MS/MS analysis method. The pharmacokinetic parameters were calculated, such as peak concentration, peak time, clearance rate, half-life, area under the drug-time curve, bioavailability, etc.

[3] = Determination of solubility of crystal form A of compound 1 in single or mixed solvents; assay type: physicochemical; conditions: for solubility: organic solvent or mixture, thermodynamic from solid
Description: Assay Example 1: Determination of Solubility of Crystal Form A of Compound 1
Multiple portions of about 2.0 mg of crystal form A of compound 1 were weighed in parallel and placed in glass vials. Various single solvents or mixed solvents listed in Table 2 were gradually added in small amount, and shaken constantly, while the dissolution of the compound was observed. The solubility of the compound was calculated based on the weight of the weighed compound and the volume of the correspondingly added solvent.

[4] = test system: CT26 cells; experiment: Pharmacodynamics in vivo in CT-26 model (subcutaneous CT26 tumor in BALB/c nude mice); conditions: anti-PD-1 5 mg/Kg QW; for Volume of tumor: crystal form A 50 mg/Kg BID oral
Source text: Assay Example 4: Study of Pharmacodynamics of Crystal Form a of Compound 1 In Vivo in CT-26 Model
BALB/c nude mice (female, 7 weeks old, and weighing about 16 to 20 g) were kept in a breeding environment of SPF-class animal room, and in single ventilated cages (5 mice per cage). Bedding and water in all cages were disinfected before use. All the animals had free access to the standard certified commercial laboratory diet. A total of 80 mice were purchased from Shanghai Slack Laboratory Animal Co., Ltd. Anti-PD-1 antibody was purchased from BioXcell with the clone of RMP-14 and the product number of BP0146. 0.1 mL of 3×10^5 CT26 cells were subcutaneously inoculated in the right back of each mouse, and the mice were randomly divided into groups for administration.
CT26 cells were subcutaneously inoculated in the right back of each BALB/c nude mouse to test pharmacodynamics in vivo. In the assay, the test compound was administered orally every day for 22 consecutive days, and the anti-PD-1 antibody was administered once per week for three consecutive weeks. The volume of the tumor was measured twice a week with a two-dimensional caliper, and the volume was measured in cubic millimeter, which was calculated by the following formula: V=0.5 a×b^2, wherein a and b were the long and short diameters of the tumor, respectively. The anti-tumor efficacy was determined by dividing the average volume increase of the tumors of animals treated with the compound by the average volume increase of the tumors of the untreated animals. (BID means twice a day)

T1 sequence (P29274 whole entry): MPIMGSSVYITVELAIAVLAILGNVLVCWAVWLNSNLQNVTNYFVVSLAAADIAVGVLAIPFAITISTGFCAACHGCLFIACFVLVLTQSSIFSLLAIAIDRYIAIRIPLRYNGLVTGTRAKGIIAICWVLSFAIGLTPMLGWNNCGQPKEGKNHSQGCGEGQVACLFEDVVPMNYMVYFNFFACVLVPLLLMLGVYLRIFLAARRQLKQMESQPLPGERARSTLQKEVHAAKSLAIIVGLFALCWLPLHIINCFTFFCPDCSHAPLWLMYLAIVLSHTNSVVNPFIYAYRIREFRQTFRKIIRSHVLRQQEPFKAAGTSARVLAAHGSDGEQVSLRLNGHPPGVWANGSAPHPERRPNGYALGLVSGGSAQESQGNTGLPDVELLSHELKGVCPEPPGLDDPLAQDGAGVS

In the case of `Cc1cc(-c2c(-c3ccccc3)nc(N)n3nc(CO)nc23)cc(C(F)(F)F)n1` [Compound 1, (5-amino-8-(2-methyl-6-(trifluoromethyl)pyridin-4-yl)-7-phenyl-[1,2,4]triazolo[1,5-c]pyrimidin-2-yl)methanol], the “Antagonistic activity against the adenosine A2a receptor (in words)” value [1] is reported as “excellent antagonistic activity”, the “Pharmacokinetic index in mice (in words)” value ([2]; conclusion on Table 4) is reported as “excellent pharmacokinetic index” and the clearance ([2]; mouse, plasma, female Balb/c mice, single intravenous injection, read-out: Clearance rate) is reported as 18 mL/min/kg.
In the case of `Cc1cc(-c2c(-c3ccccc3)nc(N)n3nc(CO)nc23)cc(C(F)(F)F)n1` [Crystal form A of compound 1, (5-amino-8-(2-methyl-6-(trifluoromethyl)pyridin-4-yl)-7-phenyl-[1,2,4]triazolo[1,5-c]pyrimidin-2-yl)methanol], the “Solubility in the solvents of Table 2 (in words)” value ([3]; conclusion on Table 2) is reported as “good solubility”, the solubility ([3]; solvent 1,4-Dioxane) is reported as 35 to 52.5 mg/mL (≈ 87.4 to 131 mM) and the solubility ([3]; solvent Acetone) is reported as 33.3 to 50 mg/mL (≈ 83.2 to 125 mM). It also gave a solubility ([3]; solvent Acetonitrile) of 12.2 to 13.8 mg/mL (≈ 30.5 to 34.5 mM), a solubility ([3]; solvent Acetonitrile:Water (2:1)) of 26.3 to 35 mg/mL (≈ 65.7 to 87.4 mM) and a solubility ([3]; solvent Ethanol) of 28.8 to 38.3 mg/mL (≈ 71.9 to 95.7 mM). The solubility ([3]; solvent Ethanol:Water (3:1)) was 25 to 50 mg/mL (≈ 62.4 to 125 mM), the solubility ([3]; solvent Ethyl acetate) was 12.5 to 16.7 mg/mL (≈ 31.2 to 41.7 mM) and the solubility ([3]; solvent Isopropanol) was 14.4 to 16.4 mg/mL (≈ 36 to 41 mM). It also gave a solubility ([3]; solvent Methanol) of 47.5 to 95 mg/mL (≈ 119 to 237 mM), a solubility ([3]; solvent Methyl ethyl ketone) of 36.7 to 55 mg/mL (≈ 91.7 to 137 mM) and a solubility ([3]; solvent N-butanol) of 15.7 to 18.3 mg/mL (≈ 39.2 to 45.7 mM). The solubility ([3]; solvent Tetrahydrofuran) was greater than 105 mg/mL, the “Anti-tumor effect (in words)” value ([4]; CT-26 mouse model, crystal form A 50 mg/Kg BID) was “has an anti-tumor effect; also recorded: significant inhibitory effect on the tumor” and the Volume of tumor ([4]; Day 10) was 47 mm^3. For the same compound, the Volume of tumor ([4]; Day 13) was 127 mm^3, the Volume of tumor ([4]; Day 15) was 204 mm^3 and the Volume of tumor ([4]; Day 18) was 312 mm^3. The Volume of tumor ([4]; Day 20) was 409 mm^3 and the Volume of tumor ([4]; Day 22) was 538 mm^3.

From US11649239B2, “Crystal form a of (5-amino-8-(2-methyl-6-(trifluoromethyl)pyridin-4-yl)-7-phenyl-[1,2,4]triazolo[1,5-c]pyrimidin-2-yl)methanol (compound 1)” (Medshine Discovery Inc., priority 2018, dated 2023)
